The compounds below were run against PIK3CA (human) (UniProt P42336) (assay: Assessment of PIK3CA Kinase Activity).
Sequence of PIK3CA (human) (P42336 whole entry, looked up): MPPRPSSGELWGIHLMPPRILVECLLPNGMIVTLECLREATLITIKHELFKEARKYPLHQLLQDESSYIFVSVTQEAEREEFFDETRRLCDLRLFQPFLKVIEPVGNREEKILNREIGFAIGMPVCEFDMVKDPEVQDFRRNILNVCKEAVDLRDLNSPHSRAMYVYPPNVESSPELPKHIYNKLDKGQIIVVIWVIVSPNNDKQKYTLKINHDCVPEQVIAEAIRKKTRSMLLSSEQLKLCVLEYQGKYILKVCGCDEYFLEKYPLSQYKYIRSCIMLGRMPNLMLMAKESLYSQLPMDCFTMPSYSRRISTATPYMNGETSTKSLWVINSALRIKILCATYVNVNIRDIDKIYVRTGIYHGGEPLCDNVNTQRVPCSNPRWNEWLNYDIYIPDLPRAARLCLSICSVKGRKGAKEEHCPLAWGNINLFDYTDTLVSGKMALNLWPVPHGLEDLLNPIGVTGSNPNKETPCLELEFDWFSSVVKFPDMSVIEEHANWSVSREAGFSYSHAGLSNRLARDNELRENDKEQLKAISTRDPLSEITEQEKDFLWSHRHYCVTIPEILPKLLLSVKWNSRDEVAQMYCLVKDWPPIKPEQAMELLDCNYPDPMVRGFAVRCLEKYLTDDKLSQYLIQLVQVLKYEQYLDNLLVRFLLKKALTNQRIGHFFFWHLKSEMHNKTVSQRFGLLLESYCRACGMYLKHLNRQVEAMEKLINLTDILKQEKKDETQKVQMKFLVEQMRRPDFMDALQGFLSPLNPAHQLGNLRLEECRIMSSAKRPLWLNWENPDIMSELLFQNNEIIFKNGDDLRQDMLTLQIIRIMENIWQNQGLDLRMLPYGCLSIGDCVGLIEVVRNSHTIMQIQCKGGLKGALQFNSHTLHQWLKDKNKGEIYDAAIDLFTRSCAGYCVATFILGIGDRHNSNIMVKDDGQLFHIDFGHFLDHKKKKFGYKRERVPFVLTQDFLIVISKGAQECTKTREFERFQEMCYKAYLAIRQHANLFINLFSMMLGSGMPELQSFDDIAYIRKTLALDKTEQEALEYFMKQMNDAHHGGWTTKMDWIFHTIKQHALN

Compound | IC50 [nM]
CNC(=O)Nc1ccc(-c2nccc(N3CCOCC3)n2)cc1 | 384
CNC(=O)Nc1ccc(-c2cc3nccn3c(N3CCOCC3)n2)cc1 | 2970
O=C(Nc1ccc(-c2ncc([N+](=O)[O-])c(N3CCOCC3)n2)cc1)Nc1cccnc1 | 155
C[C@@H]1COCCN1c1cc(C2CCOCC2)nc(-c2ccc(NC(=O)Nc3ccncc3)cc2)n1 | 383
CNC(=O)Nc1ccc(-c2ccnc(N3CCOCC3)n2)cc1 | 394
O=C(Nc1ccncc1)Nc1ccc(-c2cc3nccn3c(N3CCOCC3)n2)cc1 | 654
O=C(Nc1ccc(-c2cc(N3CCOCC3)nc(-c3ccccc3)n2)cc1)NC1CC1 | 3070
CN1CCN(c2ccc(NC(=O)Nc3ccc(-c4ccnc(N5CCOCC5)n4)cc3)cn2)CC1 | 79
C[C@@H]1COCCN1c1cc(N2CCOC[C@H]2C)nc(-c2ccc(NC(=O)Nc3ccc(N4CCN(C)CC4)cc3)cc2)n1 | 565
C[C@@H]1COCCN1c1cc(N2CCOC[C@H]2C)nc(-c2ccc(NC(=O)Nc3cccnc3)cc2)n1 | 983
O=C(Nc1ccc(-c2nccc(N3CCOCC3)n2)cc1)OCCO | 2550
O=C(Nc1ccc(-c2ccnc(N3CCOCC3)n2)cc1)OCCO | 2860
COC(=O)Nc1ccc(-c2nc(N3CCOCC3)c3sccc3n2)cc1 | 1600
C[C@@H]1COCCN1c1cc(C2CCOCC2)nc(-c2ccc(NC(=O)Nc3cccnc3)cc2)n1 | 684
O=C(NCCO)Nc1ccc(-c2nc(N3CCOCC3)c3sccc3n2)cc1 | 141
O=C(Nc1ccc(-c2cc3nccn3c(N3CCOCC3)n2)cc1)NC1CC1 | 5080

Compound | IC50 [nM]
O=C(NCCF)Nc1ccc(-c2nc(N3CCOCC3)c3sccc3n2)cc1 | 364
CCNC(=O)Nc1ccc(-c2nccc(N3CCOCC3)n2)cc1 | 415
C[C@@H]1COCCN1c1cc(N2CCOC[C@H]2C)nc(-c2ccc(NC(=O)Nc3ccncc3)cc2)n1 | 572
O=CNc1c(O)nc(-c2ccc(NC(=O)Nc3ccc(C(=O)NCCN4CCCCC4)cc3)cc2)nc1N1CCOCC1 | 202
C[C@@H]1COCCN1c1cc(C2CCOCC2)nc(-c2ccc(NC(=O)Nc3ccc(C(=O)N4CCN(C)CC4)cc3)cc2)n1 | 80.5
CN1CCN(c2ccc(NC(=O)Nc3ccc(-c4cc(N5CCOCC5)nc(-c5ccccc5)n4)cc3)cc2)CC1 | 7770
CCNC(=O)Nc1ccc(-c2nc(N3CCOCC3)c3sccc3n2)cc1 | 312
O=C(Nc1ccc(-c2nccc(N3CCOCC3)n2)cc1)NC1CC1 | 2750
CC(C)N1CCN(C(=O)c2ccc(NC(=O)Nc3ccc(-c4nc(N5CCOC[C@H]5C)cc(N5CCOC[C@H]5C)n4)cc3)cc2)CC1 | 113
C[C@@H]1COCCN1c1cc(C2CCOCC2)nc(-c2ccc(NC(=O)Nc3ccc(N4CCN(C)CC4)nc3)cc2)n1 | 694
O=C(Nc1ccc(-c2nc(N3CCOCC3)c3sccc3n2)cc1)NC1CC1 | 636
CC(C)N1CCN(C(=O)c2ccc(NC(=O)Nc3ccc(-c4nc(C5CCOCC5)cc(N5CCOC[C@H]5C)n4)cc3)cc2)CC1 | 146
O=C(Nc1ccc(-c2nccc(N3CCOCC3)n2)cc1)Nc1ccc(N2CCOCC2)nc1 | 112
CNC(=O)Nc1ccc(-c2cc(N3CCOCC3)c3cnn(C4CCN(Cc5ccccc5)CC4)c3n2)cc1 | 592
C[C@@H]1COCCN1c1cc(C2CCOCC2)nc(-c2ccc(NC(=O)Nc3ccc(N4CCN(C)CC4)cc3)cc2)n1 | 420
CNC(=O)Nc1ccc(-c2nc(N3CCOCC3)c3sccc3n2)cc1 | 93

Other lines, results leading:

IC50 [nM] | Compound
7 | O=C(Nc1ccccc1)Nc1ccc(-c2nc(N3CCOCC3)c3sccc3n2)cc1
11 | O=C(Nc1ccc(-c2nc(N3CCOCC3)c3sccc3n2)cc1)Nc1cccnc1
77.5 | C[C@@H]1COCCN1c1cc(N2CCOC[C@H]2C)nc(-c2ccc(NC(=O)Nc3ccc(C(=O)N4CCN(C)CC4)cc3)cc2)n1
53 | O=C(Nc1ccc(-c2ncc(-c3ccccc3)c(N3CCOCC3)n2)cc1)Nc1cccnc1
9 | O=C(Nc1ccncc1)Nc1ccc(-c2nc(N3CCOCC3)c3sccc3n2)cc1
42 | O=C(Nc1ccc(-c2ccnc(N3CCOCC3)n2)cc1)Nc1cccnc1
35 | Cc1ccc2c(N3CCOCC3)nc(-c3ccc(NC(=O)Nc4ccncc4)cc3)nc2c1
21 | O=C(Nc1ccncc1)Nc1ccc(-c2nc(N3CCOCC3)cc(N3CCOCC3)n2)cc1
35 | O=C(Nc1ccc(-c2nccc(N3CCOCC3)n2)cc1)Nc1ccc(N2CCOCC2)cc1
46 | CN1CCN(c2ccc(NC(=O)Nc3ccc(-c4nccc(N5CCOCC5)n4)cc3)cn2)CC1
35 | C=CCc1cnc(-c2ccc(NC(=O)Nc3cccnc3)cc2)nc1N1CCOCC1
16 | O=C(Nc1ccncc1)Nc1ccc(-c2cc(N3CCOCC3)nc(N3CCOCC3)n2)cc1
76 | CN(C)CCN(C)C(=O)c1ccc(NC(=O)Nc2ccc(-c3nc(O)c(NC=O)c(N4CCOCC4)n3)cc2)cc1
22 | CN(C)CCOc1ccc(NC(=O)Nc2ccc(-c3nccc(N4CCOCC4)n3)cc2)cc1
31 | CN(C)CCN(C)C(=O)c1ccc(NC(=O)Nc2ccc(-c3nc(O)c(N)c(N4CCOCC4)n3)cc2)cc1
42 | O=C(Nc1ccncc1)Nc1ccc(-c2ncc(Cl)c(N3CCOCC3)n2)cc1
15 | O=C(Nc1ccncc1)Nc1ccc(-c2nccc(N3CCOCC3)n2)cc1
19 | CN1CCN(c2ccc(NC(=O)Nc3ccc(-c4nccc(N5CCOCC5)n4)cc3)cc2)CC1
